Tested on: HIV-1 (H9IIIB strain)
Experiment: Cell-Based HIV Infection Assay Using a Reporter (MT4-GFP cells)
Conditions: Human immunodeficiency virus 1, inflection point (IP) of viral growth inhibition; MT4-GFP cells infected with HIV-1 H9IIIB; 50% normal human serum; mean of at least two independent experiments; read-out: Cell Based IP (50% NHS)
How it was run: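 MT4-GFP cells (HIV LTR-driven GFP) bulk-infected with HIV-1 H9IIIB at low MOI for 24 h, washed, then exposed to compounds in RPMI plus 50% normal human serum, 0.4% DMSO. Infected cells counted at 24 and 48 h; R0 = 48 h/24 h ratio, inhibition normalised to DMSO and triple-drug control; IP from 4-parameter fit.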

Cn1nc([C@H](c2ccc(Cl)cc2)[C@H](N)C(=O)Nc2cccc(F)c2CC[C@H]2CN[C@@H]3CCCS(=O)(=O)N2C3)cc1C(F)(F)F [Example 260, (βR)-4-chloro-N-(2-{2-[(6R,9S)-2,2-dioxido-2-thia-1,7-diazabicyclo[4.3.1]dec-9-yl]ethyl}-3-fluorophenyl)-β-[1-methyl-5-(trifluoromethyl)-1H-pyrazol-3-yl]-L-phenylalaninamide]
EC50: 4.4 nM

— patent publication US10138255B2, “Piperazine derivatives as HIV protease inhibitors” (Merck Sharp & Dohme Corp., priority 2014, dated 2018)
